ChEMBL document CHEMBL1201862, “PubChem BioAssay data set” (2004)
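Test compounds were applied to cells in 96-well plates for 48 hours at 5 doses. GI50 is the concentration that inhibits growth by half.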 Active and inactive are the calls of the source. Rule as the data show it: active = GI50 up to about 1.1 µM and inactive = higher. *1 amine or outer side, *2 acyl side, *3 side chain or, on linkers, in order; H or OH if unused. Where a SMILES comes first, the peptide text is derived from it. Bridges are numbered along the chain shown (N, C = ends). Roman numbers before positions name the chains, in order. [ ]: non-standard residue; d: D form. Actinocin(1to9) = Cc1c2oc3c(C)ccc(C(=O)[*:2])c3nc-2c(C(=O)[*:1])c(N)c1=O; NMeV = CN[CH](C(=O)O)C(C)C; Sar = CNCC(=O)O

Key:
Experiment in all cases: NCI tumour cell line growth inhibition, 48 h
A549 = tested on: A549
CAKI-1 = tested on: CAKI-1
CCRF-CEM = tested on: CCRF-CEM
COLO 205 = tested on: COLO 205
DU-145 = tested on: DU-145
Hs-578T = tested on: Hs-578T
KM12 = tested on: KM12
NCI-H460 = tested on: NCI-H460
NCI/ADR-RES = tested on: NCI/ADR-RES
OVCAR-3 = tested on: OVCAR-3
OVCAR-5 = tested on: OVCAR-5
RPMI-8226 = tested on: RPMI-8226
SF-539 = tested on: SF-539
SK-MEL-28 = tested on: SK-MEL-28
SK-MEL-2 = tested on: SK-MEL-2
SK-MEL-5 = tested on: SK-MEL-5
T47D = tested on: T47D
TK-10 = tested on: TK-10
UACC-257 = tested on: UACC-257
UO-31 = tested on: UO-31

Measured: GI50

COc1ccc(CC2NC(=O)C(NC(=O)c3c4nc5c(C(=O)NC6C(=O)NC(Cc7ccc(OC)cc7)C(=O)N7CCCC7C(=O)N(C)CC(=O)N(C)C(C(C)C)C(=O)OC6C)ccc(C)c5oc-4c(C)c(=O)c3N)C(C)OC(=O)C(C(C)C)N(C)C(=O)CN(C)C(=O)C3CCCN3C2=O)cc1 (stereo not given) (I: TY(Me)P[Sar][NMeV] / II: TY(Me)P[Sar][NMeV]; ester I:1-I:C, II:1-II:C; linker I:N-II:N via Actinocin(1to9); configuration not given here)
active: A549 < 1 nM | CAKI-1 8.69 nM | CCRF-CEM < 1 nM | COLO 205 < 1 nM | DU-145 < 1 nM | Hs-578T 22 nM | KM12 < 1 nM | NCI-H460 < 1 nM | NCI/ADR-RES 480 nM | OVCAR-3 12.3 nM | OVCAR-5 2.67 nM | RPMI-8226 < 1 nM | SF-539 < 1 nM | SK-MEL-28 < 1 nM | SK-MEL-2 15 nM | SK-MEL-5 < 1 nM | T47D < 1 nM | TK-10 35.1 nM | UACC-257 < 1 nM | UO-31 8.22 nM
